Results: PMC8048860 (Chemmedchem, 2020)

Key:
[1] = test system: T. cruzi (Tulahuen strain, DTU VI) expressing beta-galactosidase; test: T. cruzi growth inhibition assay; format: cell-based, Trypanosoma cruzi; details: read-out: T. cruzi EC50; averages of triplicate data; 3T3 host cells, 6 days
[2] = test system: human hepatocellular cells (HepG2); test: Mammalian cell growth inhibition assay, HepG2; format: cell-based; details: for EC50: HepG2, 48 h, read-out: Hep G2 EC50
[3] = test system: human lymphocytic cells (CRL-8155); test: Mammalian cell growth inhibition assay, CRL-8155; format: cell-based; details: for EC50: CRL8155, 48 h, read-out: CLR‐8155 EC50

EC50 [2]	EC90 ([2]; HepG2, read-out: Hep G2 EC90 (control compound))	Compound	EC50 [1]	EC50 [3]	EC90 ([3]; CRL8155, read-out: CRL‐8155 EC90 (control compound))
–	–	Cc1ccc2nc(-c3ccc(F)c(F)c3)c(CN3CCN(C4CCCCC4)CC3)n2c1 [Compound 37]	2.6 µM	–	–
> 50 µM	–	Cc1ccc2nc(-c3ccc(F)c(F)c3)c(CN3CCC(Cc4ccccc4)CC3)n2c1 [Compound 39]	1.6 µM	> 50 µM	–
14.3 µM	18.7 µM	CCN(CC)CCCC(C)Nc1c2ccc(Cl)cc2nc2ccc(OC)cc12 (centres unmarked) [Quinacrine]	–	5.47 µM	15.7 µM
